Data reported in US20170105926A1, “COMPOSITION COMPRISING EXTRACT OF ALPINE WORMWOOD” (AMOREPACIFIC CORPORATION, priority 2014, published 2017).

Experiments:
Assay type in all cases: cell-based, human
[1] = test system: NK1R (neurokinin 1 receptor) gene; assay: Gene expression assay by real-time PCR (NK1R); details: melanocytes (KaMC), 2 nM substance P, 5 days; control group = 1
Experimental: (§1) Melanocytes (KaMC) (KCTC 12015BP) deposited in the Korean Collection for Type Culture (KCTC) were cultured in M-254 medium (Gibco BRL, NY, USA) supplemented with Human Melanocyte Growth Supplement (HMGS; Gibco BRL, NY, USA) on a 6-well plate, while changing the medium every other day, in a 5% CO2 incubator at 37° C. until the cells occupied 95% of the plate area (95% confluence). […] The cells not treated with substance P or the alpine wormwood (Artemisia umbelliformis) extract of Example 1 were used as a control group. After removing the medium form the melanocytes cultured on the 6-well plate, the cells were washed 2 times with cold phosphate-buffered saline (PBS) and the remaining water was completely removed. […] 1 μL of the RNA was quantified using Synergy II (Biotek, USA). […] After adding 10 μL of Taqman Gene Expression Master Mix (Life Technologies, USA) and 1 μL of Assays-on-DemandTM (Life Technologies, USA) of NK1R (ACCESSION: NM_001058) and EDN1 (ACCESSION: NM_001168319) genes to 9 μL of the diluted cDNA, the expression of the genes was analyzed by relative quantification using 7500 Fast Real-Time PCR (Life Technologies, USA) with glyceraldehyde 3-phosphate dehydrogenase (GAPDH, ACCESSION: NM001256799) as a control gene. […]

EDN1 (endothelin 1) gene = assay: Gene expression assay by real-time PCR (EDN1); details: melanocytes (KaMC), 2 nM substance P, 5 days; control group = 1
Experimental: as §1

endothelin 1 (EDN1) = assay: Endothelin 1 ELISA assay of culture medium; details: melanocytes (KaMC) medium, 2 nM substance P; control group = 100%
Experimental: When the density of the melanocytes on the 6-well plate reached about 80% (˜80% confluence), they were incubated for a total of 5 days with 2 nM of stress-inducing substance P (Bachem Fechemikalien, Bubendorf, Switzerland) or the alpine wormwood (Artemisia umbelliformis) extract of Example 1 of different concentrations (0, 0.1, 1, 2 and 5 ppm). The cells not treated with substance P or the alpine wormwood (Artemisia umbelliformis) extract of Example 1 were used as a control group.
The culture medium of the cells treated with the extract in (2) of Test Example 1 were recovered and the amount of endothelin 1 (EDN1) comprised in the medium was measured at 450 nm using the human total endothelin ELISA kit (MyBioSource, USA).
Endothelin content (%)=(Absorbance/Total protein content)×100 [Equation 1]

expression of the NK1R gene (relative quantification vs GAPDH) [1]: 4.2
Compound: CSCC[C@H](NC(=O)[C@H](CC(C)C)NC(=O)CNC(=O)[C@H](Cc1ccccc1)NC(=O)[C@H](Cc1ccccc1)NC(=O)[C@H](CCC(N)=O)NC(=O)[C@H](CCC(N)=O)NC(=O)[C@@H]1CCCN1C(=O)[C@H](CCCCN)NC(=O)[C@@H]1CCCN1C(=O)[C@@H](N)CCCN=C(N)N)C(N)=O [substance P]
expression of the EDN1 gene (relative quantification vs GAPDH) (EDN1 (endothelin 1) gene): 3.6
content of endothelin 1 (absorbance/total protein content x 100) (endothelin 1 (EDN1)): 124%
